This passage reports IC50 results from US9624215B2, “Amine derivative or salt thereof” (TOYAMA CHEMICAL CO., LTD., priority 2012, dated 2017).

The experiment has as its system normal human neonatal foreskin epidermal keratinocytes (NHEK-F). The experiment in a line: Cell proliferation inhibition test. The experiment is classed as cell-based. The settings on record: Keratinocyte, 72 h, NHEK-F cells, three days incubation, ATPlite or CellTiterGlo, read-out: IC50 (concentration of the compound at which the cell count is reduced by 50%). On the procedure:
2×10^3 normal human neonatal foreskin epidermal keratinocytes (NHEK-F) (Kurabo, KK-4009) were suspended in 100 μL of Humedia-EG2 (Kurabo, KK-2150S) medium, plated in a 96-well plate and incubated overnight. The test compound was added on the following day and the cells were incubated for further three days. The cell count was determined using ATPlite (PerkinElmer, 6016739) or CellTiterGlo (Promega, G7573).
The inhibition rate was calculated from the following formula to determine the concentration of the compound at which the cell count is reduced by 50% (IC50). Inhibition rate (%)=100−(cell count in the presence of test compound/cell count in the absence of test compound)×100
A general note: In ATP-based viability assays light output follows the ATP content of the culture.

For `O=C(O)c1cc(C2CC2)cnc1Nc1cccc2c1ccn2CC1CCCC1` [Example 537, 2-((1-(Cyclopentylmethyl)-1H-indol-4-yl)amino)-5-cyclopropylnicotinic acid], the IC50 is no more than 10 nM.

`N#Cc1ccc(Cn2ccc3cc(Nc4ncc(C5CC5)cc4C(=O)O)ccc32)cc1` [Example 454, 2-((1-(4-cyanobenzyl)-1H-indol-5-yl)amino)-5-cyclopropylnicotinic acid]: the IC50 fell in the range of 10 to 100 nM.

Turning to `COc1ccc(-c2cc(Nc3ncc(C4CC4)cc3C(=O)O)cc3ccn(C)c23)cc1` [Example 487, 5-cyclopropyl-2-((7-(4-methoxyphenyl)-1-methyl-1H-indol-5-yl)amino)nicotinic acid], the IC50 is no more than 10 nM.

With `COc1ccccc1-c1cn(C)c2ccc(Nc3ncc(C4CC4)cc3C(=O)O)cc12` [Example 581, 5-cyclopropyl-2-((3-(2-methoxyphenyl)-1-methyl-1H-indol-5-yl)amino)nicotinic acid], the IC50 lay in the range of 10 to 100 nM.

Take `Cn1ccc2cc(Nc3ncc(C4CC4)cc3C(=O)O)cc(-c3cncnc3)c21` [Example 591, 5-cyclopropyl-2-((1-methyl-7-(pyrimidin-5-yl)-1H-indol-5-yl)amino)nicotinic acid]: the IC50 is 100 to 1000 nM.

For the compound `O=C(O)c1cc(C(F)(F)F)cnc1Nc1ccc2c(ccn2Cc2ccccc2)c1` [Example 116, 2-((1-benzyl-1H-indol-5-yl)amino)-5-(trifluoromethyl)nicotinic acid], the IC50 was no more than 10 nM.

Regarding `O=C(O)c1cc(C2CC2)cnc1Nc1ccc2c(ccn2CC2CC2)c1` [Example 146, 5-cyclopropyl-2-((1-(cyclopropylmethyl)-1H-indol-5-yl)amino)nicotinic acid], the IC50 was 10 to 100 nM.

As to `CCOCCc1cc(Nc2ncc(C3CC3)cc2C(=O)O)cc2ccn(C)c12` [Example 605, 5-cyclopropyl-2-((7-(2-ethoxyethyl)-1-methyl-1H-indol-5-yl)amino)nicotinic acid], the IC50 was in the range of 10 to 100 nM.

Consider `O=C(O)c1cc(C2CC2)cnc1Nc1ccc2c(cnn2Cc2ccccc2)c1` [Example 395, 2-((1-benzyl-1H-indazol-5-yl)amino)-5-cyclopropylnicotinic acid], for which the IC50 lay within 10 to 100 nM.

For `COC/C=C/c1cc(Nc2ncc(C3CC3)cc2C(=O)O)cc2ccn(C)c12` [Example 467, (E)-5-cyclopropyl-2-((7-(3-methoxyprop-1-en-1-yl)-1-methyl-1H-indol-5-yl)amino)nicotinic acid], the IC50 is 10 to 100 nM.

Consider `CCOCCCc1cc(Nc2ncc(C3CC3)cc2C(=O)O)cc2ccn(C)c12` [Example 603, 5-cyclopropyl-2-((7-(3-ethoxypropyl)-1-methyl-1H-indol-5-yl)amino)nicotinic acid], for which the IC50 lay in the range of 10 to 100 nM.

Consider `O=C(O)c1cc(C2CC2)cnc1Nc1ccc2c(c1)Cc1ccccc1-2` [Example 405, 2-((9H-fluoren-2-yl)amino)-5-cyclopropylnicotinic acid], for which the IC50 is 10 to 100 nM.

With `Cc1cccc(-c2cc(Nc3ncc(C4CC4)cc3C(=O)O)cc3ccn(C)c23)c1` [Example 477, 5-cyclopropyl-2-((1-methyl-7-(m-tolyl)-1H-indol-5-yl)amino)nicotinic acid], the IC50 was no more than 10 nM.

With `CC(C)c1ccc(Nc2ccc3c(ccn3Cc3ccccc3)c2)c(C(=O)O)c1` [Example 114, 2-((1-benzyl-1H-indol-5-yl)amino)-5-isopropylbenzoic acid], the IC50 is no more than 10 nM.

For the compound `CS(=O)(=O)NC(=O)c1cc(C2CC2)cnc1Nc1ccc2c(ccn2-c2ccccc2)c1` [Example 159, 5-cyclopropyl-N-(methylsulfonyl)-2-((1-phenyl-1H-indol-5-yl)amino)nicotinamide], the IC50 lay in the range of 10 to 100 nM.

In the case of `Cn1ccc2cc(Nc3ncc(C4CC4)cc3C(=O)O)cc(-c3cc(F)ccc3F)c21` [Example 590, 5-cyclopropyl-2-((7-(2,5-difluorophenyl)-1-methyl-1H-indol-5-yl)amino)nicotinic acid], the IC50 is no more than 10 nM.

Take `O=C(O)c1cc(C2CC2)cnc1Nc1ccc2c(ccn2Cc2cc(F)c(F)cc2F)c1` [Example 643, 5-cyclopropyl-2-((1-(2,4,5-trifluorobenzyl)-1H-indol-5-yl)amino)nicotinic acid]: the IC50 is no more than 10 nM.

For `CCn1ccc2cc(Nc3ncc(C4CC4)cc3C(=O)O)ccc21` [Example 121, 5-cyclopropyl-2-((1-ethyl-1H-indol-5-yl)amino)nicotinic acid], the IC50 is 100 to 1000 nM.

`Cn1ccc2cc(Nc3ncc(C4CC4)cc3C(=O)O)cc(-c3cc(F)cc(F)c3)c21` [Example 586, 5-cyclopropyl-2-((7-(3,5-difluorophenyl)-1-methyl-1H-indol-5-yl)amino)nicotinic acid]: the IC50 is no more than 10 nM.

As for `COc1ccc(Cn2ccc3cc(Nc4ncc(C5CC5)cc4C(=O)O)ccc32)cc1` [Example 623, 5-cyclopropyl-2-((1-(4-methoxybenzyl)-1H-indol-5-yl)amino)nicotinic acid], the IC50 is 10 to 100 nM.

For `O=C(O)c1cc(C2CC2)cnc1Nc1ccc2c(c1)cc(-c1ccccc1)n2Cc1ccccc1` [Example 387, 2-((1-benzyl-2-phenyl-1H-indol-5-yl)amino)-5-cyclopropylnicotinic acid], the IC50 was in the range of 10 to 100 nM.

Take `O=C(O)c1cc(C2CC2)cnc1Nc1cc2ccn(Cc3ccccc3)c2cc1F` [Example 552, 2-((1-benzyl-6-fluoro-1H-indol-5-yl)amino)-5-cyclopropylnicotinic acid]: the IC50 was no more than 10 nM.

Take `CCn1c(C(C)(C)C)cc2cc(Nc3ncc(C4CC4)cc3C(=O)O)ccc21` [Example 158, 2-((2-(tert-butyl)-1-ethyl-1H-indol-5-yl)amino)-5-cyclopropylnicotinic acid]: the IC50 lay in the range of 10 to 100 nM.

Regarding `O=C(O)c1cc(Cl)ccc1Nc1ccc2c(ccn2-c2ccc(Cl)cc2)c1` [Example 47, 5-chloro-2-((1-(4-chlorophenyl)-1H-indol-5-yl)amino)benzoic acid], the IC50 is no more than 10 nM.

Regarding `O=C(O)c1cc(C2CC2)cnc1Nc1ccc2c(-c3ccccc3)ncnc2c1` [Example 529, 5-cyclopropyl-2-((4-phenylquinazolin-7-yl)amino)nicotinic acid], the IC50 was 10 to 100 nM.

With `O=C(O)c1cc(Cl)cnc1Nc1ccc2c(ccn2Cc2cccc(F)c2)c1` [Example 645, 5-chloro-2-((1-(3-fluorobenzyl)-1H-indol-5-yl)amino)nicotinic acid], the IC50 was 10 to 100 nM.

Take `O=C(O)c1cc(C2CC2)cnc1Nc1cccc2c(N3CCOCC3)nccc12` [Example 475, 5-cyclopropyl-2-(1-morpholinoisoquinolin-5-ylamino)nicotinic acid]: the IC50 lay within 100 to 1000 nM.

For `O=C(O)c1cc(C2CC2)cnc1Nc1ccc2c(ccn2C(=O)c2ccccc2)c1` [Example 575, 2-((1-benzoyl-1H-indol-5-yl)amino)-5-cyclopropylnicotinic acid], the IC50 was 10 to 100 nM.

For `O=C(O)c1cc(Cl)ccc1Nc1ccc2c(ccn2-c2cscn2)c1` [Example 271, 5-chloro-2-((1-(thiazol-4-yl)-1H-indol-5-yl)amino)benzoic acid], the IC50 lay within 10 to 100 nM.

As to `O=C(O)c1cc(Cl)ccc1Nc1ccc2c(ccn2Cc2ccc3ccccc3n2)c1` [Example 251, 5-chloro-2-((1-(quinolin-2-ylmethyl)-1H-indol-5-yl)amino)benzoic acid], the IC50 was in the range of 10 to 100 nM.

Consider `COCCOc1cccc(Cn2ccc3cc(Nc4ncc(C5CC5)cc4C(=O)O)ccc32)c1` [Example 506, 5-cyclopropyl-2-((1-(3-(2-methoxyethoxyl)benzyl)-1H-indol-5-yl)amino)nicotinic acid], for which the IC50 was no more than 10 nM.

`O=C(O)c1cc(Cl)ccc1Nc1ccc2c(ccn2Cc2cccnc2)c1` [Example 349, 5-chloro-2-((1-(pyridin-3-ylmethyl)-1H-indol-5-yl)amino)benzoic acid]: the IC50 lay within 100 to 1000 nM.

As to `COCCCc1cc(Nc2ncc(C3CC3)cc2C(=O)O)cc2ccn(CC(C)C)c12` [Example 608, 5-cyclopropyl-2-((7-(3-methoxypropyl)-1-(2-methylpropyl)-1H-indol-5-yl)amino)nicotinic acid], the IC50 is no more than 10 nM.

As for `Cc1cc2cc(Nc3ncc(C4CC4)cc3C(=O)O)ccc2n1CC(C)C` [Example 550, 5-cyclopropyl-2-((1-isobutyl-2-methyl-1H-indol-5-yl)amino)nicotinic acid], the IC50 lay within 10 to 100 nM.

As to `O=C(O)c1cc(C2CC2)cnc1Nc1ccc2c(-c3ccccc3)nccc2c1` [Example 527, 5-cyclopropyl-2-((1-phenylisoquinolin-6-yl)amino)nicotinic acid], the IC50 is no more than 10 nM.

For `O=C(O)c1cc(Cl)ccc1Nc1ccc2c(ccn2-c2ccccn2)c1` [Example 311, 5-chloro-2-((1-(pyridin-2-yl)-1H-indol-5-yl)amino)benzoic acid], the IC50 was no more than 10 nM.

Take `O=C(O)c1cc(C2CC2)cnc1Nc1cccc2c1ccn2CC1CC1` [Example 437, 5-cyclopropyl-2-((1-(cyclopropylmethyl)-1H-indol-4-yl)amino)nicotinic acid]: the IC50 was 10 to 100 nM.

As for `O=C(O)c1nc(C2CC2)ccc1Nc1ccc2c(ccn2Cc2ccccc2)c1` [Example 210, 3-((1-benzyl-1H-indol-5-yl)amino)-6-cyclopropylpicolinic acid], the IC50 is 10 to 100 nM.

Consider `Cn1cc(C2CCCC2)c2cc(Nc3ncc(C4CC4)cc3C(=O)O)ccc21` [Example 614, 2-((3-cyclopentyl-1-methyl-1H-indol-5-yl)amino)-5-cyclopropylnicotinic acid], for which the IC50 lay in the range of 10 to 100 nM.

Regarding `COCCNc1cccc(Cn2ccc3cc(Nc4ncc(C5CC5)cc4C(=O)O)ccc32)c1` [Example 510, 5-cyclopropyl-2-((1-(3-((2-methoxyethyl)amino)benzyl)-1H-indol-5-yl)amino)nicotinic acid], the IC50 is no more than 10 nM.
